These results are taken from PMC12566971, “Polyprenylated Acylphloroglucinols from Hypericum rochelii and Hypericum olympicum—Cytotoxic Effects on Non-Tumorigenic Cell Lines and Antibacterial Potential” (Pharmaceuticals, 2025).

The subject of assay [1] is Enterococcus faecalis. Nature of the assay: MIC and MBC evaluation (broth microdilution, agar plate assay). It counts as cell-based. The protocol:
(§1) The MIC and MBC assessment on the pathogenic bacteria and the candidate probiotic lactic acid bacteria was carried out by the broth microdilution assay (BMD) and the agar plate assay, respectively, as described in [4]. The metabolic (dehydrogenase) activity of the lactic acid bacteria was assessed as described in [4].
(§2) P. aeruginosa PAO1 ATCC 15692 was purchased from the American Type Cell Culture Collection (ATCC, Manassas, VA, USA). S. mutans DSM 20523 was bought from the German Collection of Microorganisms and Cell Cultures (DSMZ GmbH, Braunschweig, Germany). All other bacteria and strains were purchased as described in [4].

The test system of assay [2] is Staphylococcus aureus. The description is as above. Type of assay: cell-based. The protocol: as §1, §2
The subject of assay [3] is Streptococcus mutans. Described as above. It counts as cell-based. Here is the method:
as §1, §2

Assay [4] deals with Streptococcus pyogenes. The assay is described as above. It counts as cell-based. Here is the method:
as §1, §2

Assay [5] concerns HGF cells. Nature of the assay: Western blot for autophagy proteins Atg5, Atg7. The settings on record: MIC for S. aureus, relative to untreated control. It counts as cell-based, human. Here is the method:
For Western blot, CCL-1 and HGF cell lines were chosen, and they were seeded in either 6-well plates or 55 mm Petri dishes suitable for cell culture. They were treated with an exposure time of 24 h in an incubator (Panasonic MCO-18AC, Panasonic Healthcare Ltd., […], Japan). […] Hans-Jörg Eibl. In addition, a higher concentration of an […] added to one of the tests for comparison. The samples were trypsinized, collected, washed with PBS (TS1101, HiMedia, Mumbai, India), centrifuged, and frozen at -80 °C if storage was necessary. Then they were lysed on ice with a buffer containing 100 mM Tris-HCl (648313, Sigma-Aldrich, St. Louis, MO, USA) at pH 8.0, 4% sodium dodecyl sulfate (SDS, […], Sigma-Aldrich), 20% glycerol (49779, Sigma-Aldrich), 1% Na3VO4 (450243, Sigma-Aldrich), 200 mM dithiothreitol (DTT, 3483-12-3, Sigma-Aldrich, Burlington, MA, USA) supplemented with protease inhibitor (05892970001, Roche). The cell lysate was heated to boiling for 15 min, then centrifuged at 13,000 rpm for 10 min at 4 °C. Lysates were subjected to denaturing SDS polyacrylamide gel electrophoresis on acrylamide 4-20% gradient Mini-PROTEAN® TGXTM Stain-Free gels (4568094, Bio-Rad Laboratories, Hercules, CA, USA). […] Densitometric calculation and analysis was performed with Quantity One software version 4.6.9 (Bio-Rad Laboratories).

Setting [6] is: bactericidal if ≤ 4, bacteriostatic if > 4.

Several values for one entry are separate records, joined by “and”; a condition that tells them apart may be missing. Identical values can stand only once.

As to `CC(C)=CCCC1(C)C(CC=C(C)C)CC2C(=O)C1(C(=O)C(C)C)C(=O)C(CC=C(C)C)=C2O` (stereo not shown) [Olympiforin B], the MBC in assay [1] (Enterococcus faecalis) is 55 µg/mL and 98 µM; in assay [2] (Staphylococcus aureus, read-out: Minimal bactericidal concentration (MBC), Staphylococcus aureus), 19 µg/mL and 34 µM; in assay [3] (Streptococcus mutans, read-out: MBC for S. mutans), 6.25 µg/mL and 11.1 µM; in assay [4] (Streptococcus pyogenes), 60 µg/mL and 107 µM. In addition, in assay [1] (setting [6]), the “MBC/MIC ratio, E. faecalis” value is listed as 14. In assay [2] (setting [6]), the “MBC/MIC ratio, S. aureus” value is on record as 19. Besides, in assay [3] (Streptococcus mutans, read-out: MIC for S. mutans), the MIC is 3 µg/mL and 5.57 µM. The “MBC/MIC ratio, Streptococcus mutans” value in assay [3] (setting [6]) came to 2. In addition, in assay [4] (setting [6]), the “MBC/MIC ratio, S. pyogenes” value amounted to 15. In addition, in assay [5], the “Increase of Atg5 and Atg7 proteins” value is on record as 106–135%.
